Earlier results in patent publication US10688072B2, “Misoprostol dispersible tablet” (Azanta Danmark A/S, priority 2014, dated 2020).
Like-named read-outs stand apart in the source and are kept apart here.

Details: 400 μg

Peak in plasma concentration (oral administration compared with vaginal): larger peak than vaginal administration
Inter-subject variability in % at peak concentration (oral route compared with vaginal): smaller than for vaginal application
Structure (SMILES): CCCCC(C)(O)C/C=C/[C@H]1[C@H](O)CC(=O)[C@@H]1CCCCCCC(=O)OC (mixture of isomers) [misoprostol]
Peak in plasma concentration (sublingual administration compared with oral and vaginal): larger peak in plasma concentration of misoprostol than oral and vaginal
Inter-subject variability in % at peak concentration (sublingual route compared with oral and vaginal): smaller following the sublingual route of administration than for oral and vaginal application
